This is an account of results in patent US20140017701A1, “CHIMERIC PDK1 KINASES” (priority 2011, published 2014).

For one test, the system named is PDK1. In words: Protein kinase activity assay, PDK1. Type of test: biochemical, human. To be noted: for Effect on PDK1 activity: PDK1 wt / PDK1 50-359; for Activity (%) PDK1: Table I a, percentage of catalytic activity compared to DMSO, T308tide substrate, 50 μM stated for PS171. As to the method:
(§1) For the expression and purification of protein kinases fused to GST, pEBG-2T derived plasmids were transfected into 8×14.5 cm dishes containing HEK293 cells using the PEI method ([…] and […]/14.5 cm dish). The cells were lysed after 48 h in a buffer containing 50 mM Tris-HCl pH 7.5, 1 mM EGTA, 1 mM EDTA, 1% (w/v) Triton X-100, 1 mM sodium orthovanadate, […], 5 mM sodium pyrophosphate, 0.27 M sucrose, 0.1% β-mercaptoethanol, and 1 tablet of protease inhibitor cocktail per 50 ml of buffer. Lysates were frozen in liquid nitrogen and kept at −80° C. until required. Purification involved incubation of the cleared lysate with glutathione sepharose, followed by 2 washes with 0.5 M NaCl in lysis buffer, 8 washes with a buffer containing 50 mM Tris-HCl, 0.1 mM EGTA and 0.1% β-mercaptoethanol (buffer A), and a last wash with buffer A supplemented with 0.26 M sucrose. Elution was performed with this last buffer containing 20 mM glutathione and the GST-fusion protein was cleared from resin by filtration through a “SigmaPrep” spin column (Sigma). GST-fusion proteins were aliquoted, snap frozen in liquid nitrogen and kept at −80° C. until use. Purity at this stage was above 85% as estimated by SDS-PAGE and staining with Coomassie Brilliant Blue R250. PRK2 was expressed from pEBG-2T-PRK2 (Balendran, A. et al. J Biol Chem 275, 20806-13. (2000)), SGK1 from pEBG-2T-SGK1-ΔN[Ser422Asp], PKBα from pEBG-2T-PKBα[Ser473Asp] (Biondi et al., D. R. Embo J 20, 4380-90. (2001)), PKCl from pEBG-2T-PKCl and PKCζ from pEBG-2T-PKCζ. PDK1 and S6K1 were expressed in Sf9 insect cells using a baculovirus expression system from pFastBac-PDK1 and pFastBac-56K1-T2[Thr412Glu].
(§2) The protein kinase activity assays were performed essentially as previously described (Engel, M. et al. Embo J 25, 5469-80 (2006)). The assays were done in a 96-well format and 4 μl aliquots spotted on P81 phospho-cellulose papers (Whatman) using epMotion 5070 (Eppendorf), washed in 0.01% phosphoric acid, dried, and then exposed and analyzed using PhosphoImager technology (FLA-9000 Starion, Fujifilm). Atypical PKC (aPKC) activity assays were performed in a total volume of 20 μl containing 50 mM Tris-HCl pH 7.5, 0.05 mg/ml BSA, 0.1% (v/v) 2-mercaptoethanol, 10 mM MgCl2, 100 μM [γ^32P]ATP (5-50 cpm/pmol), 0.003% Brij, 30-50 ng of aPKC, and MBP (10 μM) or PSRtide (100 μM) as the substrate. After 15 min pre-incubation, the kinase reaction was started by addition of 6 μl of an ATP-Mg mix. When required, lipid activator (LA) phosphatidylserine (100 ng) or PKC lipid activator mix (1×) was included in the pre-incubation. Low basal activity and consistent activation of 1-592 PKCζ and 498 PKCζ by LA was obtained when the pre-incubation time was started by addition of the whole mix on the enzyme.
The substrates were T308tide (200 μM) for PDK1, Kemptide (100 μM) for PKA, and Crosstide (100 μM) for SGK, PKB, S6K, and PRK2. The activity assays for PKCα, β, θ, and δ were performed in the presence of PKC lipid activator mix (1×) using 3 μM of histone H1 as substrate.
The activity assays were performed in duplicates or triplicates (in the case of the temperature stability assay) with less than 10% difference between the duplicate pairs. The activity assays shown were repeated at least twice with similar results. Moreover, most of the assays shown were repeated multiple times with enzymes from independent purifications with similar results. Representative experiments are shown. […]

The next test deals with T1, S6K1-T2-[Thr412Glu] (Homo sapiens, UniProt P23443, T412E).
T1 construct: His; made in house; host or cells: Sf9 insect cells (baculovirus)
In words: Protein kinase activity assay, S6K1. Type of test: biochemical. The conditions noted are these: Table I a; percentage of catalytic activity compared to DMSO; Crosstide substrate. As to the method: (§3) For the expression and purification of protein kinases fused to GST, pEBG-2T derived plasmids were transfected into 8×14.5 cm dishes containing HEK293 cells using the PEI method ([…] and […]/14.5 cm dish). The cells were lysed after 48 h in a buffer containing 50 mM Tris-HCl pH 7.5, 1 mM EGTA, 1 mM EDTA, 1% (w/v) Triton X-100, 1 mM sodium orthovanadate, […], 5 mM sodium pyrophosphate, 0.27 M sucrose, 0.1% β-mercaptoethanol, and 1 tablet of protease inhibitor cocktail per 50 ml of buffer. Lysates were frozen in liquid nitrogen and kept at −80° C. until required. Purification involved incubation of the cleared lysate with glutathione sepharose, followed by 2 washes with 0.5 M NaCl in lysis buffer, 8 washes with a buffer containing 50 mM Tris-HCl, 0.1 mM EGTA and 0.1% β-mercaptoethanol (buffer A), and a last wash with buffer A supplemented with 0.26 M sucrose. […]
(§4) The protein kinase activity assays were performed essentially as previously described (Engel, M. et al. Embo J 25, 5469-80 (2006)). The assays were done in a 96-well format and 4 μl aliquots spotted on P81 phospho-cellulose papers (Whatman) using epMotion 5070 (Eppendorf), washed in 0.01% phosphoric acid, dried, and then exposed and analyzed using PhosphoImager technology (FLA-9000 Starion, Fujifilm). […]

The target of a further test is T2, PKBα [Ser473Asp] (Homo sapiens, UniProt P31749, S473D).
T2 construct: made in house; host or cells: HEK293
Put plainly: Protein kinase activity assay, PKBα. Type of test: biochemical. To be noted: Table I a; percentage of catalytic activity compared to DMSO; Crosstide substrate. As to the method: as §3, §4

The test system of a further test is PKA. Put plainly: Protein kinase activity assay, PKA. Type of test: biochemical. The conditions noted are these: Table I a; percentage of catalytic activity compared to DMSO; Kemptide substrate. The method, then:
as §2
(§5) The substrates were T308tide (200 μM) for PDK1, Kemptide (100 μM) for PKA, and Crosstide (100 μM) for SGK, PKB, S6K, and PRK2. The activity assays for PKCα, β, θ, and δ were performed in the presence of PKC lipid activator mix (1×) using 3 μM of histone H1 as substrate. […]

For the next test, the target named is T3, PKCι (Homo sapiens, UniProt P41743).
T3 construct: made in house; host or cells: HEK293
T3 sequence (P41743 10-596 limits assumed): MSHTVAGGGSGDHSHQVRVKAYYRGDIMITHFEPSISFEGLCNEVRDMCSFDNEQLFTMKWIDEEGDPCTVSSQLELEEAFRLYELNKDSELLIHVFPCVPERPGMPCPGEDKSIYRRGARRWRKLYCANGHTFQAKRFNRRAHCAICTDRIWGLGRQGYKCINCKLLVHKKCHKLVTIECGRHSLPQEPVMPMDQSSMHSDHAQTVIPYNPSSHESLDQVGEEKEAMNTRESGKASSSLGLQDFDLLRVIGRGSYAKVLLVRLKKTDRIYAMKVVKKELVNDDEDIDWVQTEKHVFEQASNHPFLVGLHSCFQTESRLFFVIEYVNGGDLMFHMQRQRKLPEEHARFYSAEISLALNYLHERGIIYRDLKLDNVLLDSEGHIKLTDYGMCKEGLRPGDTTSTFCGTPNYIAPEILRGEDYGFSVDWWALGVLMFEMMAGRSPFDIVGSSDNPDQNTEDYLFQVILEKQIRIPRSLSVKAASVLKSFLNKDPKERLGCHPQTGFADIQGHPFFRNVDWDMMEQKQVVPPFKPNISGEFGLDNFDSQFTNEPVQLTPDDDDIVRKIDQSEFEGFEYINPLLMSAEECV
Put plainly: Protein kinase activity assay, PKCι. To be noted: for Effect on PKCι activity: 50 μM; for Activity (%) Atypical PKCs PKCι: Table I b, percentage of catalytic activity compared to DMSO. Type of test: biochemical. As to the method:
as §1
as §2, with “enzyme. […]” for “enzyme.”

A further test has as its target T4, PKCδ (Homo sapiens, UniProt Q05655).
T4 construct: purchased ProQinase
Put plainly: Protein kinase activity assay, PKCδ. Type of test: biochemical. To be noted: Table I b; percentage of catalytic activity compared to DMSO; lipid activator mix, histone H1. As to the method: as §2, §5

For another test, the target named is T5, PKCθ (Homo sapiens, UniProt Q04759).
T5 construct: purchased ProQinase
Put plainly: Protein kinase activity assay, PKCθ. Type of test: biochemical. To be noted: Table I b; percentage of catalytic activity compared to DMSO; lipid activator mix, histone H1. As to the method: as §2, §5

T1 sequence (P23443 1-421 T412E limits assumed): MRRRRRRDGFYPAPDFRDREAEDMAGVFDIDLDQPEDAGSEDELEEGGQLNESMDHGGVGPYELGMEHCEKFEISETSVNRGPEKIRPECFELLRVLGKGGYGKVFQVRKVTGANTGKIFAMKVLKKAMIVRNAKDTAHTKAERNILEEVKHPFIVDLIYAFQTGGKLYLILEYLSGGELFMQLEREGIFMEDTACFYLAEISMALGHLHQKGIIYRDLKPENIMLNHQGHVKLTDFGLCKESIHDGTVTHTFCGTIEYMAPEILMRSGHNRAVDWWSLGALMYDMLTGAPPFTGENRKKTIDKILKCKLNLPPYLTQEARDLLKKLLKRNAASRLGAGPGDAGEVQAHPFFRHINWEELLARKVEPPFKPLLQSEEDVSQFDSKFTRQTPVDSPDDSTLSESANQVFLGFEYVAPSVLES
T2 sequence (P31749 whole entry S473D): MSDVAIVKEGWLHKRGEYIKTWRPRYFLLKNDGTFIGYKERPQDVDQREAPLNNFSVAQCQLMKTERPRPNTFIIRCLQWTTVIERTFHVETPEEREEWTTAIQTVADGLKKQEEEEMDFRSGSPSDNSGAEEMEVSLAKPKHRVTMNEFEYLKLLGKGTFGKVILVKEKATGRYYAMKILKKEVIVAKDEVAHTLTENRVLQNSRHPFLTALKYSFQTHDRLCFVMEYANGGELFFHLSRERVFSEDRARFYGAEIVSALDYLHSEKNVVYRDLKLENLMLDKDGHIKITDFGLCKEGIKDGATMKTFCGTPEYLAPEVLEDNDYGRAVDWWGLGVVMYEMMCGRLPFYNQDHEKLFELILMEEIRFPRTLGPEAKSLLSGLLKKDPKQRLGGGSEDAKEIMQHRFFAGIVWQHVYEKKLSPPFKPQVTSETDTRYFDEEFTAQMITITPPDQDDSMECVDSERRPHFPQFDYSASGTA
T5 sequence (Q04759 whole entry): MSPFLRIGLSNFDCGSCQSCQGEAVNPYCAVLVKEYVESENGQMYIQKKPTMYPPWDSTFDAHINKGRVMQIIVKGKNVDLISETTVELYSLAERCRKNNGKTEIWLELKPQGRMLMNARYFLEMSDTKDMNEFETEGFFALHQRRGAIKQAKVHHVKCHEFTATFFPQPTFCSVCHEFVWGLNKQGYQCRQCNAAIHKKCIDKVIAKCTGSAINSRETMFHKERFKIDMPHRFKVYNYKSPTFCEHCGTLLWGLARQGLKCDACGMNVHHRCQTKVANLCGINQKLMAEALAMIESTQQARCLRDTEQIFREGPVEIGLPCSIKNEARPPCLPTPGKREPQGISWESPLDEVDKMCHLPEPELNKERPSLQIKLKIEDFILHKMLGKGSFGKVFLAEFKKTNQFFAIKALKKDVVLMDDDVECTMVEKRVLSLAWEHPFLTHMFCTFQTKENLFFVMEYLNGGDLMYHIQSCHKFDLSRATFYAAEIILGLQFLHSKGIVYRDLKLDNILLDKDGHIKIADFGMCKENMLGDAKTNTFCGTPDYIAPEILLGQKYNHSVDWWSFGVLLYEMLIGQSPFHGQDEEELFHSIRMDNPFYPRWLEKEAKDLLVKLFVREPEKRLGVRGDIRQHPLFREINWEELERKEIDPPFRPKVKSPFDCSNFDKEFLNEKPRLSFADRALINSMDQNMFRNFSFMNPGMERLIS
T4 sequence (Q05655 whole entry): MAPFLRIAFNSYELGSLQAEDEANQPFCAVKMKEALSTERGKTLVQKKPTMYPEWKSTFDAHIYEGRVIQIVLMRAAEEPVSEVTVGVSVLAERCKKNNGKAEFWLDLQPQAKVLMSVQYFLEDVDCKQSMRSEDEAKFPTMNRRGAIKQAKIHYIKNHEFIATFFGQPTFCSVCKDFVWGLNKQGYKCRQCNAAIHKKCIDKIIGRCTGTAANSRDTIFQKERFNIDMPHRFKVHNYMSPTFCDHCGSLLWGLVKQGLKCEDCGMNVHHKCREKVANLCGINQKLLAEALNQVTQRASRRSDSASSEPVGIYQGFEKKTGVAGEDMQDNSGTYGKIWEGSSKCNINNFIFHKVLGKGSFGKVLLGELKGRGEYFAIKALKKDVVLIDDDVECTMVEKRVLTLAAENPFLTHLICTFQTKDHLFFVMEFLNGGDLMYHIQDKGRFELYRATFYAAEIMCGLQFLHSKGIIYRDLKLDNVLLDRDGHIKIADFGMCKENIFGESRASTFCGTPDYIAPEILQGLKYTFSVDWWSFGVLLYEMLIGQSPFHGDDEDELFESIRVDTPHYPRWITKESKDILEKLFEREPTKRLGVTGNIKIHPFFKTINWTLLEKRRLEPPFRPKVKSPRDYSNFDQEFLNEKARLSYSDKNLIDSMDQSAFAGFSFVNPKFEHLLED

For the molecule `Cl.O=C(O)CC(Cc1nc2cc(-c3ccccc3)ccc2[nH]1)c1ccc(Cl)cc1` (stereo not drawn) [PS168], in the test on PDK1, the “Effect on PDK1 activity” value is “activates” and the “Activity (%) PDK1” value was 294%. Further, on S6K1-T2-[Thr412Glu], the “Activity (%) S6K1” value stood at 41%. Also, the “Activity (%) PKBα” value at PKBα [Ser473Asp] came out at 87%. In the test on PKA, the “Activity (%) PKA” value came to 70%. At PKCι, the “Effect on PKCι activity” value was “not” and the “Activity (%) Atypical PKCs PKCι” value amounted to 108%. On PKCδ, the “Activity (%) Novel PKCs PKCδ” value came to 148%. The “Activity (%) Novel PKCs PKCθ” value on PKCθ stood at 130%.

With `Cl.O=C(O)CC(Cc1nc2c(Cl)cc(Cl)cc2[nH]1)c1ccc(Cl)cc1` (stereo not drawn) [PS171], in the test on PDK1, the “Effect on PDK1 activity” value was “allosteric activators” and the “Activity (%) PDK1” value is reported as 246%. For the same molecule, on S6K1-T2-[Thr412Glu], the “Activity (%) S6K1” value was 47%. Moreover, the “Activity (%) PKBα” value on PKBα [Ser473Asp] amounted to 94%. In the test on PKA, the “Activity (%) PKA” value is recorded as 91%. Also, at PKCι, the “Effect on PKCι activity” value is on record as “not” and the “Activity (%) Atypical PKCs PKCι” value is 106%. Also, on PKCδ, the “Activity (%) Novel PKCs PKCδ” value turned out to be 170%. The “Activity (%) Novel PKCs PKCθ” value at PKCθ is reported as 118%.
